According to US20090068290A1, “BIFEPRUNOX DOSES FOR TREATING SCHIZOPHRENIA” (priority 2006, published 2009):

How the values were obtained:
[1] = test system: adult subjects with schizophrenia; assay: CGI Severity of Illness score, Clinical Study One; assay type: in vivo, human; set-up: Change from Baseline in CGI Severity of Illness Score, Median: scale not given here; conditions: for Change from Baseline in CGI Severity of Illness Score, Mean (S.D.) / Change from Baseline in CGI Severity of Illness Score, Median / Change from Baseline in CGI Severity of Illness Score, Trt Effect (bifeprunox—placebo): ITT population
Method: (§1) There were five treatment groups in this study. […] Study medication was administered once daily. After Baseline measurements were performed, the titration phase was begun. Bifeprunox treated subjects were titrated up to 5 mg, 10 mg or 20 mg according to a standardized titration schedule (Day 1: 0.125 mg, Day 2: 0.25 mg, Day 3: 0.5 mg, Day 4: 1.0 mg, Day 5: 2.0 mg, Day 6: 5.0 mg, Day 7: 10.0 mg, Day 8: 20 mg). When the assigned dose was reached, subjects were maintained at that dose for the remainder of the six-week treatment period.
(§2) The change in the Positive and Negative Symptom Scale (PANSS) total score, from baseline to endpoint, was the primary outcome measure. Secondary efficacy measures included: PANSS positive, PANSS negative, PANSS general psychopathology (GPP) score, PANSS-derived Brief Psychiatric Rating Scale (BPRS) score, Clinical Global Impressions-Severity of Illness (CGI-S), CGI-Improvement (CGI-I) scores, and responder rates. Safety and tolerability evaluations included extrapyramidal symptoms (EPS), weight gain, lipid profile, and serum prolactin.

[2] = test system: adult subjects with schizophrenia; assay: PANSS positive subscale score, Clinical Study One; assay type: in vivo, human; conditions: Bifeprunox 5 mg, ITT
Method: as §1, §2

[3] = Bifeprunox 10 mg, Endpoint LOCF
[4] = Bifeprunox 20 mg, Endpoint LOCF

Compound: O=c1[nH]c2cccc(N3CCN(Cc4cccc(-c5ccccc5)c4)CC3)c2o1 [Bifeprunox, 7-[4-([1,1′-biphenyl]-3-ylmethyl)-1-piperazinyl]-2(3H)-benzoxazolone]
- CGI severity of illness score, treatment effect (bifeprunox—placebo) ([1]; Bifeprunox 5 mg, Endpoint LOCF): −0.31
- Change from Baseline in CGI Severity of Illness Score, Mean (S.D.) ([1]; Bifeprunox 5 mg, Endpoint LOCF): −0.58 (1.10)
- Change from Baseline in CGI Severity of Illness Score, Median ([1]; Bifeprunox 5 mg, Endpoint LOCF): 0.0
- Change from Baseline in CGI Severity of Illness Score, Trt Effect (bifeprunox—placebo) ([1]; Bifeprunox 5 mg, Endpoint LOCF): −0.31
- Change from Baseline in CGI Severity of Illness Score, Mean (S.D.) ([1]; Bifeprunox 5 mg, Week 1, LOCF): −0.18 (0.68)
- Change from Baseline in CGI Severity of Illness Score, Median ([1]; Bifeprunox 5 mg, Week 1, LOCF): 0.0
- Change from Baseline in CGI Severity of Illness Score, Mean (S.D.) ([1]; Bifeprunox 5 mg, Week 2, LOCF): −0.37 (0.83)
- Change from Baseline in CGI Severity of Illness Score, Median ([1]; Bifeprunox 5 mg, Week 2, LOCF): 0.0
- Change from Baseline in CGI Severity of Illness Score, Mean (S.D.) ([1]; Bifeprunox 5 mg, Week 3, LOCF): −0.47 (0.90)
- Change from Baseline in CGI Severity of Illness Score, Median ([1]; Bifeprunox 5 mg, Week 3, LOCF): 0.0
- Change from Baseline in CGI Severity of Illness Score, Mean (S.D.) ([1]; Bifeprunox 5 mg, Week 4, LOCF): −0.52 (1.01)
- Change from Baseline in CGI Severity of Illness Score, Median ([1]; Bifeprunox 5 mg, Week 4, LOCF): 0.0
- CGI severity of illness score, treatment effect (bifeprunox—placebo) [1, 3]: 0.12
- Change from Baseline in CGI Severity of Illness Score, Mean (S.D.) [1, 3]: −0.18 (1.04)
- Change from Baseline in CGI Severity of Illness Score, Median [1, 3]: 0.0
- Change from Baseline in CGI Severity of Illness Score, Trt Effect (bifeprunox—placebo) [1, 3]: 0.12
- Change from Baseline in CGI Severity of Illness Score, Mean (S.D.) ([1]; Bifeprunox 10 mg, Week 1, LOCF): 0.13 (0.75)
- Change from Baseline in CGI Severity of Illness Score, Median ([1]; Bifeprunox 10 mg, Week 1, LOCF): 0.0
- Change from Baseline in CGI Severity of Illness Score, Mean (S.D.) ([1]; Bifeprunox 10 mg, Week 2, LOCF): −2.3 (0.92)
- Change from Baseline in CGI Severity of Illness Score, Median ([1]; Bifeprunox 10 mg, Week 2, LOCF): 0.0
- Change from Baseline in CGI Severity of Illness Score, Mean (S.D.) ([1]; Bifeprunox 10 mg, Week 3, LOCF): −0.22 (1.01)
- Change from Baseline in CGI Severity of Illness Score, Median ([1]; Bifeprunox 10 mg, Week 3, LOCF): 0.0
- Change from Baseline in CGI Severity of Illness Score, Mean (S.D.) ([1]; Bifeprunox 10 mg, Week 4, LOCF): −0.16 (0.99)
- Change from Baseline in CGI Severity of Illness Score, Median ([1]; Bifeprunox 10 mg, Week 4, LOCF): 0.0
- Change from Baseline in CGI Severity of Illness Score, Mean (S.D.) [1, 4]: −0.52 (0.96)
- Change from Baseline in CGI Severity of Illness Score, Median [1, 4]: 0.0
- Change from Baseline in CGI Severity of Illness Score, Trt Effect (bifeprunox—placebo) [1, 4]: −0.19
- Change from Baseline in CGI Severity of Illness Score, Mean (S.D.) ([1]; Bifeprunox 20 mg, Week 1, LOCF): −0.31 (0.74)
- Change from Baseline in CGI Severity of Illness Score, Median ([1]; Bifeprunox 20 mg, Week 1, LOCF): 0.0
- Change from Baseline in CGI Severity of Illness Score, Mean (S.D.) ([1]; Bifeprunox 20 mg, Week 2, LOCF): −0.50 (0.85)
- Change from Baseline in CGI Severity of Illness Score, Median ([1]; Bifeprunox 20 mg, Week 2, LOCF): 0.0
- Change from Baseline in CGI Severity of Illness Score, Mean (S.D.) ([1]; Bifeprunox 20 mg, Week 3, LOCF): −0.57 (0.90)
- Change from Baseline in CGI Severity of Illness Score, Median ([1]; Bifeprunox 20 mg, Week 3, LOCF): 0.0
- Change from Baseline in CGI Severity of Illness Score, Mean (S.D.) ([1]; Bifeprunox 20 mg, Week 4, LOCF): −0.57 (0.89)
- Change from Baseline in CGI Severity of Illness Score, Median ([1]; Bifeprunox 20 mg, Week 4, LOCF): 0.0
- CGI severity of illness score, treatment effect (bifeprunox—placebo) ([1]; bifeprunox 20 mg, Endpoint LOCF): −0.19
- Change from Baseline in PANSS Positive Subscale Score, Mean (S.D.) ([2]; Endpoint LOCF): −3.2 (5.2)
- Change from Baseline in PANSS Positive Subscale Score, Median ([2]; Endpoint LOCF): −3
- PANSS Positive Subscale Score, Trt Effect (bifeprunox—placebo) ([2]; Endpoint LOCF, ANCOVA): −1.1
- Change from Baseline in PANSS Positive Subscale Score, Mean (S.D.) ([2]; Week 1, LOCF): −1.1 (3.4)
- Change from Baseline in PANSS Positive Subscale Score, Median ([2]; Week 1, LOCF): −1
- Change from Baseline in PANSS Positive Subscale Score, Mean (S.D.) ([2]; Week 2, LOCF): −2.1 (4.0)
- Change from Baseline in PANSS Positive Subscale Score, Median ([2]; Week 2, LOCF): −2
- Change from Baseline in PANSS Positive Subscale Score, Mean (S.D.) ([2]; Week 3, LOCF): −2.6 (4.7)
- Change from Baseline in PANSS Positive Subscale Score, Median ([2]; Week 3, LOCF): −3
- Change from Baseline in PANSS Positive Subscale Score, Mean (S.D.) ([2]; Week 4, LOCF): −3.0 (5.0)
- Change from Baseline in PANSS Positive Subscale Score, Median ([2]; Week 4, LOCF): −4
